Data: US10588317B2, “Isoxazoline-substituted benzamides and analogues as insecticides” (priority 2015, dated 2020)
Where two headings read alike, the source gives them in different places.

Key:
Format in all cases: in vivo
[1] = system: Plutella xylostella; assay: Plutella xylostella (diamond back moth), artificial diet; conditions: 120 h, read-out: effect in at least one of the two categories (mortality or growth inhibition); for percent effect (mortality or growth inhibition) at 200 ppm: application rate 200 ppm, L2 larvae, 5 days after infestation
How it was run: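 Artificial diet in 24-well plates treated with aqueous test solutions made from 10'000 ppm DMSO stocks, dried, then infested with L2 larvae (10 to 15 per well). Mortality and growth inhibition scored against untreated samples 5 days after infestation; activity cut-off at least 80% in either category at 200 ppm.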

[2] = system: Myzus persicae; assay: Myzus persicae (green peach aphid): feeding/contact activity; conditions: 144 h
Protocol: (§1) Sunflower leaf discs were placed onto agar in a 24-well microtiter plate and sprayed with aqueous test solutions prepared from 10'000 ppm DMSO stock solutions. After drying, the leaf discs were infested with an aphid population of mixed ages. The samples were assessed for mortality 6 days after infestation.

[3] = system: Diabrotica balteata; assay: Diabrotica balteata (corn root worm), sprayed maize sprouts; conditions: 96 h, read-out: effect in at least one of the two categories (mortality or growth inhibition); for percent effect (mortality or growth inhibition) at 200 ppm: application rate 200 ppm, L2 larvae, 4 days after infestation
How it was run: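 Maize sprouts on agar sprayed with aqueous dilutions of DMSO stocks, dried, then infested with L2 larvae (6–10 per well). Mortality and growth inhibition scored against untreated controls 4 days after infestation, at 200 ppm application rate.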

[4] = system: Tetranychus urticae; assay: Tetranychus urticae (two-spotted spider mite): feeding/contact activity; conditions: 192 h
Protocol: Bean leaf discs on agar in 24-well microtiter plates were sprayed with aqueous test solutions prepared from 10'000 ppm DMSO stock solutions. After drying the leaf discs were infested with a mite population of mixed ages. The samples were assessed for mortality on mixed population (mobile stages) 8 days after infestation.

[5] = system: Spodoptera littoralis; assay: Spodoptera littoralis (Egyptian cotton leaf worm), sprayed cotton leaf discs; conditions: foliar, 72 h, read-out: control (mortality, anti-feeding effect, growth inhibition)
How it was run: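 Cotton leaf discs on agar sprayed with aqueous test solutions made from 10'000 ppm DMSO stock; after drying, infested with five L1 larvae. Mortality, anti-feeding and growth inhibition scored versus untreated samples 3 days after infestation; control counted when any category exceeds untreated.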

[6] = system: Thrips tabaci; assay: Thrips tabaci (onion thrips): feeding/contact activity; conditions: 144 h
Protocol: as §1, with “on” for “onto”, “in” for “in a”, “plates” for “plate”, “drying” for “drying,”, “a Thrips” for “an aphid”

[7] = system: Euschistus heros; assay: Euschistus heros (neotropical brown stink bug), sprayed soybean leaves; conditions: 120 h, read-out: effect in at least one of the two categories (mortality or growth inhibition); for percent effect (mortality or growth inhibition) at 200 ppm: application rate 200 ppm, N2 nymphs, 5 days after infestation
How it was run: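 Soybean leaves on agar sprayed with aqueous dilutions of DMSO stocks, dried, then infested with N2 nymphs. Mortality and growth inhibition scored against untreated samples 5 days after infestation; application rate 200 ppm.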

[8] = application rate 200 ppm, aphid population of mixed ages, 6 days after infestation, read-out: mortality
[9] = application rate 200 ppm, mixed population (mobile stages), 8 days after infestation, read-out: mortality
[10] = application rate 200 ppm, L1 larvae, 3 days after infestation
[11] = application rate 200 ppm, Thrips population of mixed ages, 6 days after infestation, read-out: mortality

CNS(=O)(=O)N1C[C@@H](NC(=O)c2ccc(C3=NO[C@](c4cc(Cl)c(C(F)F)c(Cl)c4)(C(F)(F)F)C3)cc2C)CO1 [Compound A206, 4-[(5R)-5-[3,5-dichloro-4-(difluoromethyl)phenyl]-5-(trifluoromethyl)-4H-1,2-oxazol-3-yl]-2-methyl-N-[(4R)-2-(methylsulfamoyl)-1,2-oxazolidin-4-yl]benzamide]
≥ 80%: percent effect (mortality or growth inhibition) at 200 ppm [1] | mortality at 200 ppm [2, 8] | percent effect (mortality or growth inhibition) at 200 ppm [3] | mortality at 200 ppm [4, 9] | mortality at 200 ppm [5, 10] | mortality at 200 ppm [6, 11] | percent effect (mortality or growth inhibition) at 200 ppm [7]

Cc1cc(C2=NO[C@@](c3cc(Cl)cc(Cl)c3)(C(F)(F)F)C2)ccc1C(=O)N[C@H]1CON(S(=O)(=O)N(C)C2CC2)C1 [Compound A156]
≥ 80%: percent effect (mortality or growth inhibition) at 200 ppm [1] | mortality at 200 ppm [2, 8] | percent effect (mortality or growth inhibition) at 200 ppm [3] | mortality at 200 ppm [4, 9] | mortality at 200 ppm [5, 10] | mortality at 200 ppm [6, 11] | percent effect (mortality or growth inhibition) at 200 ppm [7]

CS(=O)(=O)N1CC(NC(=O)c2ccc(C3=NO[C@@](c4cc(Cl)c(Cl)c(Cl)c4)(C(F)(F)F)C3)cc2Cl)CO1 (stereo partly drawn) [Compound A15, 2-chloro-N-(2-methylsulfonylisoxazolidin-4-yl)-4-[(5S)-5-(3,4,5-trichlorophenyl)-5-(trifluoromethyl)-4H-isoxazol-3-yl]benzamide]
≥ 80%: percent effect (mortality or growth inhibition) at 200 ppm [1] | mortality at 200 ppm [2, 8] | percent effect (mortality or growth inhibition) at 200 ppm [3] | mortality at 200 ppm [4, 9] | mortality at 200 ppm [5, 10] | mortality at 200 ppm [6, 11] | percent effect (mortality or growth inhibition) at 200 ppm [7]

Cc1cc(C2=NO[C@@](c3cc(Cl)c(Cl)c(Cl)c3)(C(F)(F)F)C2)ccc1C(=O)NC1CON(S(=O)(=O)N(C)C(C)C)C1 (stereo partly drawn) [Compound A103, N-[2-[isopropyl(methyl)sulfamoyl]isoxazolidin-4-yl]-2-methyl-4-[(5S)-5-(3,4,5-trichlorophenyl)-5-(trifluoromethyl)-4H-isoxazol-3-yl]benzamide]
≥ 80%: percent effect (mortality or growth inhibition) at 200 ppm [1] | mortality at 200 ppm [2, 8] | percent effect (mortality or growth inhibition) at 200 ppm [3] | mortality at 200 ppm [4, 9] | mortality at 200 ppm [5, 10] | mortality at 200 ppm [6, 11] | percent effect (mortality or growth inhibition) at 200 ppm [7]

Cc1cc(C2=NO[C@@](c3cc(Cl)c(Cl)c(Cl)c3)(C(F)(F)F)C2)ccc1C(=O)NC1CON(S(=O)(=O)F)C1 (stereo partly drawn) [Compound A106, 4-[[2-methyl-4-[(5S)-5-(3,4,5-trichlorophenyl)-5-(trifluoromethyl)-4H-isoxazol-3-yl]benzoyl]amino]isoxazolidine-2-sulfonyl fluoride]
≥ 80%: percent control (mortality or growth inhibition) at 200 ppm [1] | mortality at 200 ppm [2] | percent control (mortality or growth inhibition) at 200 ppm [3] | mortality at 200 ppm [4] | mortality at 200 ppm [5] | mortality at 200 ppm [6] | percent control (mortality or growth inhibition) at 200 ppm [7]

CCS(=O)(=O)N1CC(NC(=O)c2ccc(C3=NO[C@@](c4cc(Cl)c(Cl)c(Cl)c4)(C(F)(F)F)C3)cc2Br)CO1 (stereo partly drawn) [Compound A43, 2-bromo-N-(2-ethylsulfonylisoxazolidin-4-yl)-4-[(5S)-5-(3,4,5-trichlorophenyl)-5-(trifluoromethyl)-4H-isoxazol-3-yl]benzamide]
≥ 80%: percent effect (mortality or growth inhibition) at 200 ppm [1] | mortality at 200 ppm [2, 8] | percent effect (mortality or growth inhibition) at 200 ppm [3] | mortality at 200 ppm [4, 9] | mortality at 200 ppm [5, 10] | mortality at 200 ppm [6, 11] | percent effect (mortality or growth inhibition) at 200 ppm [7]

Cc1cc(C2=NO[C@](c3cc(Cl)c(F)c(Cl)c3)(C(F)(F)F)C2)ccc1C(=O)N[C@H]1CON(S(=O)(=O)NC2(C#N)CC2)C1 [Compound A168]
≥ 80%: percent effect (mortality or growth inhibition) at 200 ppm [1] | mortality at 200 ppm [2, 8] | percent effect (mortality or growth inhibition) at 200 ppm [3] | mortality at 200 ppm [4, 9] | mortality at 200 ppm [5, 10] | mortality at 200 ppm [6, 11] | percent effect (mortality or growth inhibition) at 200 ppm [7]

CCN(C1CC1)S(=O)(=O)N1C[C@@H](NC(=O)c2ccc(C3=NO[C@@](c4cc(Cl)cc(Cl)c4)(C(F)(F)F)C3)cc2Cl)CO1 [Compound A157]
≥ 80%: percent effect (mortality or growth inhibition) at 200 ppm [1] | mortality at 200 ppm [2, 8] | percent effect (mortality or growth inhibition) at 200 ppm [3] | mortality at 200 ppm [4, 9] | mortality at 200 ppm [5, 10] | mortality at 200 ppm [6, 11] | percent effect (mortality or growth inhibition) at 200 ppm [7]

Cc1cc(C2=NO[C@@](c3cc(Cl)c(F)c(Cl)c3)(C(F)(F)F)C2)ccc1C(=O)N[C@@H]1CON(S(=O)(=O)C2CC2)C1 [Compound A228, N-[(4S)-2-cyclopropylsulfonyl-1,2-oxazolidin-4-yl]-4-[(5S)-5-(3,5-dichloro-4-fluorophenyl)-5-(trifluoromethyl)-4H-1,2-oxazol-3-yl]-2-methylbenzamide]
≥ 80%: percent effect (mortality or growth inhibition) at 200 ppm [1] | mortality at 200 ppm [2, 8] | percent effect (mortality or growth inhibition) at 200 ppm [3] | mortality at 200 ppm [4, 9] | mortality at 200 ppm [5, 10] | mortality at 200 ppm [6, 11] | percent effect (mortality or growth inhibition) at 200 ppm [7]

Cc1cc(C2=NO[C@@](c3cc(Cl)c(F)c(Cl)c3)(C(F)(F)F)C2)ccc1C(=O)N[C@@H]1CON(S(=O)(=O)N(C)C2(C#N)CC2)C1 [Compound A187]
≥ 80%: percent effect (mortality or growth inhibition) at 200 ppm [1] | mortality at 200 ppm [2, 8] | percent effect (mortality or growth inhibition) at 200 ppm [3] | mortality at 200 ppm [4, 9] | mortality at 200 ppm [5, 10] | mortality at 200 ppm [6, 11] | percent effect (mortality or growth inhibition) at 200 ppm [7]

Cc1cc(C2=NO[C@@](c3cc(Cl)c(F)c(Cl)c3)(C(F)(F)F)C2)ccc1C(=O)NC1CON(S(=O)(=O)N(C)C(C)(C)C)C1 (stereo partly drawn) [Compound A100, N-[2-[tert-butyl(methyl)sulfamoyl]isoxazolidin-4-yl]-4-[(5S)-5-(3,5-dichloro-4-fluoro-phenyl)-5-(trifluoromethyl)-4H-isoxazol-3-yl]-2-methyl-benzamide]
≥ 80%: percent effect (mortality or growth inhibition) at 200 ppm [1] | mortality at 200 ppm [2, 8] | percent effect (mortality or growth inhibition) at 200 ppm [3] | mortality at 200 ppm [4, 9] | mortality at 200 ppm [5, 10] | mortality at 200 ppm [6, 11] | percent effect (mortality or growth inhibition) at 200 ppm [7]

Cc1cc(C2=NO[C@@](c3cc(Cl)c(F)c(Cl)c3)(C(F)(F)F)C2)ccc1C(=O)NC1CON(S(=O)(=O)N(C)S(=O)(=O)N(C)C)C1 (stereo partly drawn) [Compound A79, 4-[(5S)-5-(3,5-dichloro-4-fluoro-phenyl)-5-(trifluoromethyl)-4H-isoxazol-3-yl]-N-[2-[dimethylsulfamoyl(methyl)sulfamoyl]isoxazolidin-4-yl]-2-methyl-benzamide]
≥ 80%: percent effect (mortality or growth inhibition) at 200 ppm [1] | mortality at 200 ppm [2, 8] | percent effect (mortality or growth inhibition) at 200 ppm [3] | mortality at 200 ppm [4, 9] | mortality at 200 ppm [5, 10] | mortality at 200 ppm [6, 11] | percent effect (mortality or growth inhibition) at 200 ppm [7]

CCCN(C)S(=O)(=O)N1CC(NC(=O)c2ccc(C3=NO[C@@](c4cc(Cl)c(Cl)c(Cl)c4)(C(F)(F)F)C3)cc2C)CO1 (stereo partly drawn) [Compound A84, 2-methyl-N-[2-[methyl(propyl)sulfamoyl]isoxazolidin-4-yl]-4-[(5S)-5-(3,4,5-trichlorophenyl)-5-(trifluoromethyl)-4H-isoxazol-3-yl]benzamide]
≥ 80%: percent effect (mortality or growth inhibition) at 200 ppm [1] | mortality at 200 ppm [2, 8] | percent effect (mortality or growth inhibition) at 200 ppm [3] | mortality at 200 ppm [4, 9] | mortality at 200 ppm [5, 10] | mortality at 200 ppm [6, 11] | percent effect (mortality or growth inhibition) at 200 ppm [7]

Cc1cc(C2=NO[C@@](c3cc(Cl)c(F)c(Cl)c3)(C(F)(F)F)C2)ccc1C(=O)NC1CON(S(N)(=O)=O)C1 (some centres unmarked) [Compound A71]
≥ 80%: percent effect (mortality or growth inhibition) at 200 ppm [1] | mortality at 200 ppm [2, 8] | percent effect (mortality or growth inhibition) at 200 ppm [3] | mortality at 200 ppm [4, 9] | mortality at 200 ppm [5, 10] | mortality at 200 ppm [6, 11] | percent effect (mortality or growth inhibition) at 200 ppm [7]
